Test results reported in patent US10138275B2, “Crystalline powder of cyclic peptide compound, preparation method for same, and uses thereof” (SHANGHAI TECHWELL BIOPHARMACEUTICAL CO., LTD, priority 2014, dated 2018).
Starred links: 1 amine or outer side, 2 acyl side, 3 side chain; linkers in the order of their positions; H or OH if unused. Positions of bridges follow the written chain, without caps; N, C: chain ends. Non-standard residues stand in square brackets, D forms with d. Residues, ends and D or L forms follow the SMILES beside them. *: point of attachment. hTyr(3S-OH,4S-OH,3'-OSO3H) = N[C@H](C(=O)O)[C@H](O)[C@@H](O)c1ccc(O)c(OS(=O)(=O)O)c1; Orn(4R-OH,5R-OH) = O=C([C@H](C[C@@H](O)[C@@H](O)N[*:3])N[*:1])[*:2]; Pro(3S-OH,4S-Me) = C[C@H]1CN[C@H](C(=O)O)[C@H]1O; X1 = CCCCCOc1ccc(-c2cc(-c3ccc(C(=O)*)cc3)no2)cc1; Gln(3R-OH) = NC(=O)C[C@@H](O)[C@H](N)C(=O)O; Hyp = O=C(O)[C@@H]1C[C@@H](O)CN1

Assay: Ratio of dry weight to wet weight (Dry/Wet) of filtered solids
Format: physicochemical
Conditions: wet solids weighed after filtration, before drying
Text: As used herein, the term “Dry/Wet” and “ratio of dry weight to wet weight” can be used interchangeably, both of which refer to the ratio of the weight of a compound without solvent(s) to the weight of the compound with solvent(s). In the present invention, wet weight of crystals is obtained by filtering the crystallized solids until no noticeable droplet outflows and weighing the solids.

| Compound | ratio of dry weight to wet weight (Dry/Wet) |
| --- | --- |
| CCCCCOc1ccc(-c2cc(-c3ccc(C(=O)N[C@H]4C[C@@H](O)[C@@H](O)NC(=O)[C@@H]5[C@@H](O)[C@@H](C)CN5C(=O)[C@H]([C@H](O)CC(N)=O)NC(=O)[C@H]([C@H](O)[C@@H](O)c5ccc(O)c(OS(=O)(=O)[O-])c5)NC(=O)[C@@H]5C[C@@H](O)CN5C(=O)[C@H]([C@@H](C)O)NC4=O)cc3)no2)cc1.[Na+] [Comparative Example 15] (X1-[Orn(4R-OH,5R-OH)]T[Hyp][hTyr(3S-OH,4S-OH,3'-OSO3H)][Gln(3R-OH)][Pro(3S-OH,4S-Me)]; lactam 1-C) | 0.15 |
| CCCCCOc1ccc(-c2cc(-c3ccc(C(=O)N[C@H]4C[C@@H](O)[C@@H](O)NC(=O)[C@@H]5[C@@H](O)[C@@H](C)CN5C(=O)[C@H]([C@H](O)CC(N)=O)NC(=O)[C@H]([C@H](O)[C@@H](O)c5ccc(O)c(OS(=O)(=O)[O-])c5)NC(=O)[C@@H]5C[C@@H](O)CN5C(=O)[C@H]([C@@H](C)O)NC4=O)cc3)no2)cc1.[Na+] [Comparative Example 11] (X1-[Orn(4R-OH,5R-OH)]T[Hyp][hTyr(3S-OH,4S-OH,3'-OSO3H)][Gln(3R-OH)][Pro(3S-OH,4S-Me)]; lactam 1-C) | 0.11 |
| CCCCCOc1ccc(-c2cc(-c3ccc(C(=O)N[C@H]4C[C@@H](O)[C@@H](O)NC(=O)[C@@H]5[C@@H](O)[C@@H](C)CN5C(=O)[C@H]([C@H](O)CC(N)=O)NC(=O)[C@H]([C@H](O)[C@@H](O)c5ccc(O)c(OS(=O)(=O)[O-])c5)NC(=O)[C@@H]5C[C@@H](O)CN5C(=O)[C@H]([C@@H](C)O)NC4=O)cc3)no2)cc1.[Na+] [Comparative Example 6] (X1-[Orn(4R-OH,5R-OH)]T[Hyp][hTyr(3S-OH,4S-OH,3'-OSO3H)][Gln(3R-OH)][Pro(3S-OH,4S-Me)]; lactam 1-C) | 0.21 |
| CCCCCOc1ccc(-c2cc(-c3ccc(C(=O)N[C@H]4C[C@@H](O)[C@@H](O)NC(=O)[C@@H]5[C@@H](O)[C@@H](C)CN5C(=O)[C@H]([C@H](O)CC(N)=O)NC(=O)[C@H]([C@H](O)[C@@H](O)c5ccc(O)c(OS(=O)(=O)[O-])c5)NC(=O)[C@@H]5C[C@@H](O)CN5C(=O)[C@H]([C@@H](C)O)NC4=O)cc3)no2)cc1.[Na+] [Comparative Example 14] (X1-[Orn(4R-OH,5R-OH)]T[Hyp][hTyr(3S-OH,4S-OH,3'-OSO3H)][Gln(3R-OH)][Pro(3S-OH,4S-Me)]; lactam 1-C) | 0.19 |
| CCCCCOc1ccc(-c2cc(-c3ccc(C(=O)N[C@H]4C[C@@H](O)[C@@H](O)NC(=O)[C@@H]5[C@@H](O)[C@@H](C)CN5C(=O)[C@H]([C@H](O)CC(N)=O)NC(=O)[C@H]([C@H](O)[C@@H](O)c5ccc(O)c(OS(=O)(=O)[O-])c5)NC(=O)[C@@H]5C[C@@H](O)CN5C(=O)[C@H]([C@@H](C)O)NC4=O)cc3)no2)cc1.[Na+] [Comparative Example 12] (X1-[Orn(4R-OH,5R-OH)]T[Hyp][hTyr(3S-OH,4S-OH,3'-OSO3H)][Gln(3R-OH)][Pro(3S-OH,4S-Me)]; lactam 1-C) | 0.18 |
| CCCCCOc1ccc(-c2cc(-c3ccc(C(=O)N[C@H]4C[C@@H](O)[C@@H](O)NC(=O)[C@@H]5[C@@H](O)[C@@H](C)CN5C(=O)[C@H]([C@H](O)CC(N)=O)NC(=O)[C@H]([C@H](O)[C@@H](O)c5ccc(O)c(OS(=O)(=O)[O-])c5)NC(=O)[C@@H]5C[C@@H](O)CN5C(=O)[C@H]([C@@H](C)O)NC4=O)cc3)no2)cc1.[Na+] [Comparative Example 7] (X1-[Orn(4R-OH,5R-OH)]T[Hyp][hTyr(3S-OH,4S-OH,3'-OSO3H)][Gln(3R-OH)][Pro(3S-OH,4S-Me)]; lactam 1-C) | 0.2 |
| CCCCCOc1ccc(-c2cc(-c3ccc(C(=O)N[C@H]4C[C@@H](O)[C@@H](O)NC(=O)[C@@H]5[C@@H](O)[C@@H](C)CN5C(=O)[C@H]([C@H](O)CC(N)=O)NC(=O)[C@H]([C@H](O)[C@@H](O)c5ccc(O)c(OS(=O)(=O)[O-])c5)NC(=O)[C@@H]5C[C@@H](O)CN5C(=O)[C@H]([C@@H](C)O)NC4=O)cc3)no2)cc1.[Na+] [Comparative Example 9] (X1-[Orn(4R-OH,5R-OH)]T[Hyp][hTyr(3S-OH,4S-OH,3'-OSO3H)][Gln(3R-OH)][Pro(3S-OH,4S-Me)]; lactam 1-C) | 0.09 |
| CCCCCOc1ccc(-c2cc(-c3ccc(C(=O)N[C@H]4C[C@@H](O)[C@@H](O)NC(=O)[C@@H]5[C@@H](O)[C@@H](C)CN5C(=O)[C@H]([C@H](O)CC(N)=O)NC(=O)[C@H]([C@H](O)[C@@H](O)c5ccc(O)c(OS(=O)(=O)[O-])c5)NC(=O)[C@@H]5C[C@@H](O)CN5C(=O)[C@H]([C@@H](C)O)NC4=O)cc3)no2)cc1.[Na+] [Comparative Example 5] (X1-[Orn(4R-OH,5R-OH)]T[Hyp][hTyr(3S-OH,4S-OH,3'-OSO3H)][Gln(3R-OH)][Pro(3S-OH,4S-Me)]; lactam 1-C) | 0.18 |
| CCCCCOc1ccc(-c2cc(-c3ccc(C(=O)N[C@H]4C[C@@H](O)[C@@H](O)NC(=O)[C@@H]5[C@@H](O)[C@@H](C)CN5C(=O)[C@H]([C@H](O)CC(N)=O)NC(=O)[C@H]([C@H](O)[C@@H](O)c5ccc(O)c(OS(=O)(=O)[O-])c5)NC(=O)[C@@H]5C[C@@H](O)CN5C(=O)[C@H]([C@@H](C)O)NC4=O)cc3)no2)cc1.[Na+] [Comparative Example 4] (X1-[Orn(4R-OH,5R-OH)]T[Hyp][hTyr(3S-OH,4S-OH,3'-OSO3H)][Gln(3R-OH)][Pro(3S-OH,4S-Me)]; lactam 1-C) | 0.19 |
| CCCCCOc1ccc(-c2cc(-c3ccc(C(=O)N[C@H]4C[C@@H](O)[C@@H](O)NC(=O)[C@@H]5[C@@H](O)[C@@H](C)CN5C(=O)[C@H]([C@H](O)CC(N)=O)NC(=O)[C@H]([C@H](O)[C@@H](O)c5ccc(O)c(OS(=O)(=O)[O-])c5)NC(=O)[C@@H]5C[C@@H](O)CN5C(=O)[C@H]([C@@H](C)O)NC4=O)cc3)no2)cc1.[Na+] [Comparative Example 10] (X1-[Orn(4R-OH,5R-OH)]T[Hyp][hTyr(3S-OH,4S-OH,3'-OSO3H)][Gln(3R-OH)][Pro(3S-OH,4S-Me)]; lactam 1-C) | 0.23 |
| CCCCCOc1ccc(-c2cc(-c3ccc(C(=O)N[C@H]4C[C@@H](O)[C@@H](O)NC(=O)[C@@H]5[C@@H](O)[C@@H](C)CN5C(=O)[C@H]([C@H](O)CC(N)=O)NC(=O)[C@H]([C@H](O)[C@@H](O)c5ccc(O)c(OS(=O)(=O)[O-])c5)NC(=O)[C@@H]5C[C@@H](O)CN5C(=O)[C@H]([C@@H](C)O)NC4=O)cc3)no2)cc1.[Na+] [Comparative Example 8] (X1-[Orn(4R-OH,5R-OH)]T[Hyp][hTyr(3S-OH,4S-OH,3'-OSO3H)][Gln(3R-OH)][Pro(3S-OH,4S-Me)]; lactam 1-C) | 0.15 |
| CCCCCOc1ccc(-c2cc(-c3ccc(C(=O)N[C@H]4C[C@@H](O)[C@@H](O)NC(=O)[C@@H]5[C@@H](O)[C@@H](C)CN5C(=O)[C@H]([C@H](O)CC(N)=O)NC(=O)[C@H]([C@H](O)[C@@H](O)c5ccc(O)c(OS(=O)(=O)[O-])c5)NC(=O)[C@@H]5C[C@@H](O)CN5C(=O)[C@H]([C@@H](C)O)NC4=O)cc3)no2)cc1.[Na+] [Comparative Example 13] (X1-[Orn(4R-OH,5R-OH)]T[Hyp][hTyr(3S-OH,4S-OH,3'-OSO3H)][Gln(3R-OH)][Pro(3S-OH,4S-Me)]; lactam 1-C) | 0.2 |
